{"source": "patent EP4759817A1", "about": "“HETEROARYL COMPOUND, PREPARATION METHOD THEREFOR, AND USE THEREOF IN MEDICINE” (Jiangsu Hengrui Pharmaceuticals Co., Ltd., priority 2023, dated 2025)", "key": {"[1]": {"test_system": "Lu99 xenografts", "assay": "Efficacy test in subcutaneous Lu99 xenograft model", "type": "in vivo, NUNU nude mice", "conditions": "i.g., qd/21d", "excerpt": "To evaluate the inhibitory effect of the compounds of the present disclosure on tumour growth in a subcutaneous xenograft model using the human lung giant cell carcinoma cell line Lu99 in female NUNU nude mice\nUsing a solution of 20% PEG400 + 70% (10% TPGS) + 5%DMSO+5% (1% HPMCK100LV) solution\nLaboratory animals: Female NUNU nude mice, purchased from Zhejiang Vital River Laboratory Animal Technology Co., Ltd. (License No.: SCXK(Zhe)2024-0001; animal qualification certificate No.: 20240524Abzz0619000789), weighing approximately 20-24 g at arrival.\nHousing conditions: The mice were housed 5 per cage under a 12/12 h light/dark cycle, constant temperature of 23°C ± 1°C, humidity of 50%-60%, with free access to food and water.\nAfter acclimatisation, NUNU nude mice were grouped and administered as follows: Table 4. Animal grouping and dosing regimen for in vivo efficacy experiment\n(§1) 0.1 ml (5 × 10^5 cells ± 50% matrigel) of Lu99 cells (cell-to-matrigel volume ratio = 1 : 1) in the logarithmic growth phase was subcutaneously injected into the right upper limb of each mouse. When the mean tumour volume reached 75 mm^3, mice were randomly assigned to 4 groups (12 mice per group) based on tumour volume and body weight, as shown in Table 4. The day of grouping was designated as D0, and oral gavage administration was initiated once or twice daily for a total of 21 days. The 21st day after administration was designated as D21 (Table 5). Tumour volume and body weight of tumour-bearing mice were measured twice weekly using a calliper and a balance, respectively, and the data were recorded.\nAll data were plotted and statistically analysed using Excel and GraphPad Prism 10 software.\nTumour volume (V) was calculated using the formula: V = 1/2 × a × b^2, where a represents the length and b represents the width.\nRelative tumour proliferation rate: T/C (%) = (T-T0)/(C-C0) × 100(%), where T and C are the tumour volumes of the treated and control groups at the end of the experiment, and T0 and C0 are the corresponding tumour volumes at the start of the experiment.\nTumour growth inhibition: TGI (%) = 100-T/C (%)."}, "[2]": {"assay": "Body weight and survival of tumour-bearing mice in the Lu99 efficacy test", "type": "in vivo, NUNU nude mice", "conditions": "for Surviving animals/group: i.g., qd/21d", "description": "as §1"}}, "data": [{"compound": "[2H]C([2H])([2H])n1ncc(-c2ccc3c(=O)[nH]nc(CN)c3c2)c1-c1c(F)cc2c(c1C#N)O[C@H]1CC[C@H]1O2", "note": "(single isomer, unassigned) [Compound 2-p1]", "values": [{"measurement": "Mean tumour volume (mm^3) D21", "setting": "[1]; 50 mpk", "result": 574, "unit": "mm^3"}, {"measurement": "TGI (%) D21", "setting": "[1]; 50 mpk", "result": 72, "unit": "%"}, {"measurement": "Mean tumour volume (mm^3) D21", "setting": "[1]; 100 mpk", "result": 256, "unit": "mm^3"}, {"measurement": "TGI (%) D21", "setting": "[1]; 100 mpk", "result": 90, "unit": "%"}, {"measurement": "Mean tumour volume (mm^3) D21", "setting": "[1]; 200 mpk", "result": 165, "unit": "mm^3"}, {"measurement": "TGI (%) D21", "setting": "[1]; 200 mpk", "result": 95, "unit": "%"}, {"measurement": "effect on body weight of the mice", "setting": "[2]; 50, 100 and 200 mpk/qd, once daily for 21 days", "result": "no effects on body weight"}, {"measurement": "Surviving animals/group", "setting": "[2]; 50 mpk", "result": "12/12"}, {"measurement": "Surviving animals/group", "setting": "[2]; 100 mpk", "result": "12/12"}, {"measurement": "Surviving animals/group", "setting": "[2]; 200 mpk", "result": "12/12"}]}]}
